Results as given in US4268630A, “Microbiological production of ketones from C3 -C6 alkanes” (priority 1979, dated 1981).
Entries after “also recorded” stand apart in the source; their conditions may differ.

Tests used:
[1] = tested on: Pseudomonas sp. ATCC 21438; assay: Oxidation of sec-alcohols to ketones by resting cell suspension; type: cell-based
Experimental: (§1) The pH of the nutrient medium was adjusted to 7.0 by the addition of acid or base and 50 ml. samples of the nutrient medium were charged into a plurality of 300 ml. shaker flasks. The shaker flasks were inoculated with an inoculating loop of cells from an agar plate containing homogeneous colonies of the microorganisms on the plate (the purity of the isolates was confirmed by microscopic examination). The isolates had been maintained on methanol (0.4% V/V) agar plates or on agar plates under an atmosphere of methane and air having a 1:1 V/V gas ratio which had been transferred every two weeks. For growth on methanol, the medium was supplemented with 0.4% methanol. For growth on methane, the gaseous phase of the inoculated flasks was replaced with a gas mixture comprised on methane and air having a ratio of 1:1 on a V/V basis. The inoculated flasks were sealed air-tight and were incubated on a rotary shaker of orbital radius 2.5 cm. at 250 rpm and at 30° C. for two days until turbidity in the medium had developed. The cells were harvested by centrifugation at 10,000×g. at 4° C. for 30 minutes. The cell pellet was washed twice with a 0.05 M phosphate buffer at a pH of 7.0 (containing 0.02 M MgCl2). The washed cells were then suspended in a 0.05 M phosphate buffer at pH 7.0.
(§2) A 0.5 ml. sample of each washed cell suspension (2 mg. cells) was put into 10 ml. vials at 4° C. which were sealed with a rubber cap. The gaseous phase of the vials was removed with vacuum and then was replaced with a gas mixture of the substrate reactant (i.e., alkane or secondary alcohol) and oxygen at a 1:1 V/V ratio. (In the case of a liquid substrate, i.e., secondary alcohol, 10 μl of the substrate was put in the 10 ml. vials). […] Samples of product (1-3 μl) were withdrawn periodically with a microsyringe and the products were analyzed by gas chromatography (ionization flame detector column).
(§3) The procedure in Example 1 was repeated except that a plurality of methanol-utilizing methylotrophic microorganisms were each aerobically grown in a methanol-containing nutrient medium instead of a methane-containing medium. The nutrients in the medium were the same as indicated in Example 1 except that 0.4% V/V methanol was used as the alcohol dehydrogenase inducer and as the major carbon and energy source for growth. The cells were harvested and washed as described in Example 1. The resting microbial cells of the induced methanol-grown methanol-utilizing methylotrophic microorganisms were then contacted with C3 -C6 secondary alcohols in a buffered solution by the procedure of Example 1.
(§4) The procedure in Example 1 was repeated except that the methylotrophic microorganisms were each aerobically grown in an alcohol dehydrogenase-inducing growth medium containing methylamine or methyl formate as the alcohol dehydrogenase enzyme inducer and growth substrate instead of methane. The nutrients in the medium were the same as indicated in Example 1 except that 0.4% V/V of the alcohol dehydrogenase-inducer growth substrate was used as the major carbon and energy source. The cells were harvested and washed as described in Example 1. The resting microbial cells were then contacted with C3 -C6 secondary alcohols in a buffered solution by the conversion procedure of Example 1.

[2] = tested on: Methanomonas methylovora ATCC 21852; assay: as above; type: cell-based
Experimental: as §1, §2, §3, §4

[3] = tested on: cell extracts of Hansenula polymorpha ATCC 26,012; assay: NAD+-dependent oxidation of secondary alcohols by cell extracts of yeasts; type: biochemical; conditions: for Conversion Rate, secondary alcohol to methylketone: cell extracts, grown on methanol, NAD+, gas chromatography
[4] = tested on: cell suspensions of C1-utilizers; assay: Production of 2-butanone from 2-butanol / sec-alcohol oxidation by cell suspensions of the strains tested; type: cell-based; conditions: cell suspensions of C1-utilizers
Source text: The substrate specificity for the oxidation of C3 -C6 secondary alcohols by the strains of C1 -utilizers was studied.

[5] = tested on: cell-free soluble extract of Methylosinus trichosporium OB3b (NRRL B-11,196); assay: Oxidation of secondary alcohols by cell-free soluble extract (NAD added); type: biochemical; conditions: soluble crude extract, grown on methanol
Experimental: (§5) To prepare the cell-free secondary alcohol dehydrogenase (SADH) system, the washed cells were disrupted with a Wave Energy Ultrasonic Oscillator, Model W201 (Wave Energy System, Inc., Newtown, Pa.) and centrifuged at 20,000× g. for 30 minutes. […] The enzyme activity was measured with a fluorescence spectrophotometer (Perkin Elmer, Model MPF 44A) by following the formation of reduced NAD (EX 340 nm, Em 460 nm). The formation of reduced NAD was also followed with an absorption spectrophotometer at 340 nm. The assay system (3 ml.) contained: potassium phosphate buffer pH 7.0; 150 μmol.; NAD 1 μmol.; a given amount of enzyme preparation; and secondary alcohol 10 μmol. The reaction was started by the addition of substrate. One unit of enzyme activity represents the reduction of one μmole NAD per minute. Protein concentrations were determined by the Lowry method (J. Biol. Chem., 193: 255-275 (1951)).
(§6) The experimental procedure for the tests reported in Table VIII were as follows: 1 mg protein of crude extract was added into a 0.5 ml. 0.05 M phosphate buffer (pH 7.0) in a 10-ml. vial. […] The reaction mixture was incubated at 30° C. on a water bath. A 3 μl sample was removed with a syringe at 15 min. of incubation and was assayed with g.l.c. Catalytic activity was also assayed by fluorescence spectrophotometry.

[6] = tested on: cell-free soluble extract of Methylobacterium organophilum CRL 26 (NRRL B-11,222); assay: as above; type: biochemical; conditions: soluble crude extract, grown on methanol
Experimental: as §5, §6

[7] = tested on: cell-free soluble extract of Methylococcus capsulatus CRL M1 (NRRL B-11,219); assay: as above; type: biochemical; conditions: soluble crude extract, grown on methanol
Experimental: as §5, §6

[8] = tested on: cell-free soluble extract of Pseudomonas sp. CRL 75 (ATCC 21,439); assay: as above; type: biochemical; conditions: soluble crude extract, grown on methanol
Experimental: as §5, §6

Pichia sp. NRRL-Y-11328 = assay: Oxidation of sec-alcohols to ketones by cell suspensions of yeasts; type: cell-based

Structure (SMILES)	Conversion Rates, sec-alcohol to methyl ketone ([1]; methanol-grown, facultative)	Conversion Rates, sec-alcohol to methyl ketone ([1]; methyl formate-grown)	Conversion Rates, sec-alcohol to methyl ketone ([1]; methylamine-grown)	Conversion Rates, sec-alcohol to methyl ketone ([2]; methanol-grown, obligate)	Conversion Rates, sec-alcohol to methyl ketone ([2]; methyl formate-grown)	Conversion Rates, sec-alcohol to methyl ketone ([2]; methylamine-grown)	Conversion Rate, secondary alcohol to methylketone [3]	specific activities ([3]; spectrophotometric, 2-butanol as substrate)	substrate specificity: rate of oxidation of secondary alcohols (in words) [4]	Oxidation Rate, sec-alcohol to methyl ketone [5]	Oxidation Rate, sec-alcohol to methyl ketone [6]	Oxidation Rate, sec-alcohol to methyl ketone [7]	Oxidation Rate, sec-alcohol to methyl ketone [8]	Conversion Rate, sec-alcohol to ketone (Pichia sp. NRRL-Y-11328; growth substrate Ethanol)	Conversion Rate, sec-alcohol to ketone (Pichia sp. NRRL-Y-11328; growth substrate Methanol)	Conversion Rate, sec-alcohol to ketone (Pichia sp. NRRL-Y-11328; growth substrate Methylamine)	Conversion Rate, sec-alcohol to ketone (Pichia sp. NRRL-Y-11328; growth substrate Methylformate)	Conversion Rate, sec-alcohol to ketone (Pichia sp. NRRL-Y-11328; growth substrate Propylamine)
CCC(C)O (stereo not drawn) [2-Butanol, 2-butanol]	3.2 μmoles/hr/mg protein	3.2 μmoles/hr/mg protein	2.1 μmoles/hr/mg protein	2.5 μmoles/hr/mg protein	2.1 μmoles/hr/mg protein	3.2 μmoles/hr/mg protein	5.2 μmoles/hr/mg Protein	85 nmoles NAD^+ reduced per min. per mg. protein	oxidized at the highest rate; also recorded: oxidized at higher rates	2.4 nmole/min/mg protein	2.5 nmole/min/mg protein	2.0 nmole/min/mg protein	25.0 nmole/min/mg protein	6.2 μmoles/hr/mg of protein	6.8 μmoles/hr/mg of protein	5.1 μmoles/hr/mg of protein	6.9 μmoles/hr/mg of protein	2.1 μmoles/hr/mg of protein
CCCCC(C)O (stereo not drawn) [2-Hexanol, 2-hexanol]	0.7 μmoles/hr/mg protein	0.80 μmoles/hr/mg protein	0.07 μmoles/hr/mg protein	1.0 μmoles/hr/mg protein	0.60 μmoles/hr/mg protein	0.09 μmoles/hr/mg protein	0.51 μmoles/hr/mg Protein	–	oxidized at a much slower rate	0 nmole/min/mg protein	0 nmole/min/mg protein	0 nmole/min/mg protein	0 nmole/min/mg protein	0.28 μmoles/hr/mg of protein	0.50 μmoles/hr/mg of protein	0.31 μmoles/hr/mg of protein	0.48 μmoles/hr/mg of protein	0.21 μmoles/hr/mg of protein
CCCC(C)O (stereo not drawn) [2-Pentanol, 2-pentanol]	2.7 μmoles/hr/mg protein	2.0 μmoles/hr/mg protein	0.82 μmoles/hr/mg protein	2.1 μmoles/hr/mg protein	1.5 μmoles/hr/mg protein	1.0 μmoles/hr/mg protein	1.0 μmoles/hr/mg Protein	–	oxidized at a much slower rate	0.1 nmole/min/mg protein	0.1 nmole/min/mg protein	0.1 nmole/min/mg protein	1.2 nmole/min/mg protein	1.0 μmoles/hr/mg of protein	1.2 μmoles/hr/mg of protein	0.72 μmoles/hr/mg of protein	0.98 μmoles/hr/mg of protein	0.60 μmoles/hr/mg of protein
CC(C)O [2-Propanol, 2-propanol]	0.45 μmoles/hr/mg protein	0.52 μmoles/hr/mg protein	1.0 μmoles/hr/mg protein	0.28 μmoles/hr/mg protein	0.62 μmoles/hr/mg protein	0.82 μmoles/hr/mg protein	4.8 μmoles/hr/mg Protein	–	oxidized at higher rates	2.0 nmole/min/mg protein	2.1 nmole/min/mg protein	1.7 nmole/min/mg protein	21.2 nmole/min/mg protein	4.5 μmoles/hr/mg of protein	5.2 μmoles/hr/mg of protein	4.2 μmoles/hr/mg of protein	4.9 μmoles/hr/mg of protein	3.2 μmoles/hr/mg of protein
